Columns and labels:
[1] = target: T1, Cysteinyl leukotriene receptor 1 (Homo sapiens) (UniProt Q9Y271); assay: In vitro antagonistic activity against leukotriene D4 receptor; A - Active; assay type: functional; conditions: filed as antagonist
T1 sequence (whole entry): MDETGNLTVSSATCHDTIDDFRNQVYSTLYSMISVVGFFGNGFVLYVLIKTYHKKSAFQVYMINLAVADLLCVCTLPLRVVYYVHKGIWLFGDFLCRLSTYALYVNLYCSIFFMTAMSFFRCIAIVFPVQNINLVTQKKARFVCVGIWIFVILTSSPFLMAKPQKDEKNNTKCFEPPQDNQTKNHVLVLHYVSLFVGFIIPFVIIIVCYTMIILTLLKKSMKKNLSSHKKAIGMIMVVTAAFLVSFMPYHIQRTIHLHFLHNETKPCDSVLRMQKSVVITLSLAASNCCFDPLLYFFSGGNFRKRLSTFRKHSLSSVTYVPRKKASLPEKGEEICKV

[2] = target: T1, Cysteinyl leukotriene receptor 1 (Homo sapiens); assay: In vivo antagonistic activity against leukotriene D4 receptor; A - Active; assay type: functional, organism-based; conditions: filed as antagonist

| Activity [1] | Activity [2] | Structure (SMILES) |
| --- | --- | --- |
| Antagonist | Antagonist | CN(C)C(=O)CCSC(SCCC(=O)O)c1cccc(/C=C/c2ccc3ccc(Cl)cc3n2)c1 (centres undefined) |
| Antagonist | Antagonist | CN(C)C(=O)CCS[C@H](SCCC(=O)O)c1cccc(/C=C/c2ccc3ccc(Cl)cc3n2)c1 |

Reference: ChEMBL document CHEMBL1149964, “The structure of MK-571 (form I) at 170 K and conformational analysis by molecular modeling” (Bioorg Med Chem Lett, 1992)
